Source: PubChem BioAssay AID1963839 (Molecular Pharmacology Branch, DTP, NCI, 2024)

Test system: 817829-284-R-J1-PDC complex spheroid viability
Assay: Anticancer human tumor 817829-284-R-J1-PDC patient-derived colon adenocarcinoma cell line growth inhibition [POLQ]
Conditions: for IC50: curve of first compound; for viability, T/C: stronger effect = lower value
Method in brief: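 Growth inhibition in 3D: complex spheroids (tumor PDC, HUVEC, MSC) treated with POLQ inhibitor combinations; where Cmax unknown, highest tested concentration 10 microM, except SN-38 at 1 microM.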

[1] = second compound 0.0316 µM, first compound 0.0316 µM
[2] = second compound 0.0316 µM, first compound 0.1 µM
[3] = second compound 0.0316 µM, first compound 0.316 µM
[4] = second compound 0.0316 µM, first compound 1 µM
[5] = second compound 0.0316 µM, first compound 3.16 µM
[6] = second compound 0.0316 µM, first compound 10 µM
[7] = second compound 0.1 µM, first compound 0.0316 µM
[8] = second compound 0.1 µM, first compound 0.1 µM
[9] = second compound 0.1 µM, first compound 0.316 µM
[10] = second compound 0.1 µM, first compound 1 µM
[11] = second compound 0.1 µM, first compound 3.16 µM
[12] = second compound 0.1 µM, first compound 10 µM
[13] = second compound 0.316 µM, first compound 0.0316 µM
[14] = second compound 0.316 µM, first compound 0.1 µM
[15] = second compound 0.316 µM, first compound 0.316 µM
[16] = second compound 0.316 µM, first compound 1 µM
[17] = second compound 0.316 µM, first compound 3.16 µM
[18] = second compound 0.316 µM, first compound 10 µM
[19] = second compound 1 µM, first compound 0.0316 µM
[20] = second compound 1 µM, first compound 0.1 µM
[21] = second compound 1 µM, first compound 0.316 µM
[22] = second compound 1 µM, first compound 1 µM
[23] = second compound 1 µM, first compound 3.16 µM
[24] = second compound 1 µM, first compound 10 µM
[25] = second compound 3.16 µM, first compound 0.0316 µM
[26] = second compound 3.16 µM, first compound 0.1 µM
[27] = second compound 3.16 µM, first compound 0.316 µM
[28] = second compound 3.16 µM, first compound 1 µM
[29] = second compound 3.16 µM, first compound 3.16 µM
[30] = second compound 3.16 µM, first compound 10 µM
[31] = second compound 10 µM, first compound 0.0316 µM
[32] = second compound 10 µM, first compound 0.1 µM
[33] = second compound 10 µM, first compound 0.316 µM
[34] = second compound 10 µM, first compound 1 µM
[35] = second compound 10 µM, first compound 3.16 µM
[36] = second compound 10 µM, first compound 10 µM
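Note: spheroids exposed to compounds for 7 days.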
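Throughout, for viability, T/C: 100% = DMSO vehicle-treated spheroids.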

CCc1cc2c(N3CCc4c(cc(Cn5ccnc5)cc4-c4cn(C)nc4C(F)(F)F)C3=O)cc(C)nc2c(OC)n1 + Cc1cccc(N(C)C(=O)C2C(O)CCN2c2nc(C)cc(C(F)(F)F)c2C#N)c1 was tested, and the IC50 (second compound 0.0316 µM) was 1.78 µM, the IC50 (second compound 0.1 µM) was 2.49 µM and the IC50 (second compound 0.316 µM) was 1.18 µM. It also gave an IC50 (second compound 1 µM) of 1.63 µM, an IC50 (second compound 3.16 µM) of 2.68 µM and an IC50 (second compound 10 µM) of 1.36 µM. It also gave a viability, T/C [1] of 85.3%, a viability, T/C [2] of 65.6% and a viability, T/C [3] of 68.5%. The viability, T/C [4] was 59.6%, the viability, T/C [5] was 41.8% and the viability, T/C [6] was 32.9%. For the same compound, the viability, T/C [7] was 88.9%, the viability, T/C [8] was 77.5% and the viability, T/C [9] was 62.2%. It also gave a viability, T/C [10] of 73.8%, a viability, T/C [11] of 43.6% and a viability, T/C [12] of 28.8%. The viability, T/C [13] was 72%, the viability, T/C [14] was 83.9% and the viability, T/C [15] was 94%. For the same compound, the viability, T/C [16] was 53.1%, the viability, T/C [17] was 38.8% and the viability, T/C [18] was 22.9%. The viability, T/C [19] was 84.1%, the viability, T/C [20] was 64.3% and the viability, T/C [21] was 81.8%. The viability, T/C [22] was 52.9%, the viability, T/C [23] was 43.3% and the viability, T/C [24] was 30.2%. For the same compound, the viability, T/C [25] was 79.4%, the viability, T/C [26] was 87.9% and the viability, T/C [27] was 66.6%. The viability, T/C [28] was 59.3%, the viability, T/C [29] was 51% and the viability, T/C [30] was 33.8%. The viability, T/C [31] was 71.4%, the viability, T/C [32] was 78.2% and the viability, T/C [33] was 66.2%. The viability, T/C [34] was 56.9%, the viability, T/C [35] was 34.3% and the viability, T/C [36] was 26.7%.

Work on COc1cc2cc(C(=O)CCC(=O)O)sc2cc1OC + Cc1cccc(N(C)C(=O)C2C(O)CCN2c2nc(C)cc(C(F)(F)F)c2C#N)c1 yielded an IC50 (second compound 0.0316 µM) greater than 10 µM, an IC50 (second compound 0.1 µM) greater than 10 µM and an IC50 (second compound 0.316 µM) greater than 10 µM. For the same compound, the IC50 (second compound 1 µM) was greater than 10 µM, the IC50 (second compound 3.16 µM) was greater than 10 µM and the IC50 (second compound 10 µM) was greater than 10 µM. The viability, T/C [1] was 100%, the viability, T/C [2] was 93.1% and the viability, T/C [3] was 89%. The viability, T/C [4] was 88.5%, the viability, T/C [5] was 114% and the viability, T/C [6] was 96.2%. It also gave a viability, T/C [7] of 113%, a viability, T/C [8] of 97% and a viability, T/C [9] of 99.5%. The viability, T/C [10] was 105%, the viability, T/C [11] was 98.7% and the viability, T/C [12] was 102%. It also gave a viability, T/C [13] of 101%, a viability, T/C [14] of 90.5% and a viability, T/C [15] of 99%. For the same compound, the viability, T/C [16] was 108%, the viability, T/C [17] was 107% and the viability, T/C [18] was 108%. It also gave a viability, T/C [19] of 102%, a viability, T/C [20] of 88.2% and a viability, T/C [21] of 96.7%. For the same compound, the viability, T/C [22] was 116%, the viability, T/C [23] was 105% and the viability, T/C [24] was 104%. For the same compound, the viability, T/C [25] was 91.1%, the viability, T/C [26] was 111% and the viability, T/C [27] was 117%. The viability, T/C [28] was 93.8%, the viability, T/C [29] was 100% and the viability, T/C [30] was 96.9%. For the same compound, the viability, T/C [31] was 87.7%, the viability, T/C [32] was 86.8% and the viability, T/C [33] was 112%. It also gave a viability, T/C [34] of 89.6%, a viability, T/C [35] of 109% and a viability, T/C [36] of 89.6%.

With O=C(Nc1ccc(O)c(NS(=O)(=O)c2ccc(F)cc2)c1)c1ccc(-c2ccccc2)cc1 + Cc1cccc(N(C)C(=O)C2C(O)CCN2c2nc(C)cc(C(F)(F)F)c2C#N)c1 the IC50 (second compound 0.0316 µM) was 8.08 µM, the IC50 (second compound 0.1 µM) was 7.5 µM and the IC50 (second compound 0.316 µM) was 8.91 µM. The IC50 (second compound 1 µM) was 6.36 µM, the IC50 (second compound 3.16 µM) was 5.44 µM and the IC50 (second compound 10 µM) was 5.2 µM. It also gave a viability, T/C [1] of 110%, a viability, T/C [2] of 106% and a viability, T/C [3] of 113%. It also gave a viability, T/C [4] of 78.7%, a viability, T/C [5] of 91.2% and a viability, T/C [6] of 41%. The viability, T/C [7] was 98.8%, the viability, T/C [8] was 79.1% and the viability, T/C [9] was 106%. The viability, T/C [10] was 90.5%, the viability, T/C [11] was 72.6% and the viability, T/C [12] was 42.5%. The viability, T/C [13] was 96.3%, the viability, T/C [14] was 93.2% and the viability, T/C [15] was 95.9%. For the same compound, the viability, T/C [16] was 87.9%, the viability, T/C [17] was 87.6% and the viability, T/C [18] was 45.5%. It also gave a viability, T/C [19] of 80.6%, a viability, T/C [20] of 90.5% and a viability, T/C [21] of 92.4%. For the same compound, the viability, T/C [22] was 94.7%, the viability, T/C [23] was 64.8% and the viability, T/C [24] was 40.4%. For the same compound, the viability, T/C [25] was 95.6%, the viability, T/C [26] was 101% and the viability, T/C [27] was 102%. It also gave a viability, T/C [28] of 98.9%, a viability, T/C [29] of 60.8% and a viability, T/C [30] of 37.9%. For the same compound, the viability, T/C [31] was 98.4%, the viability, T/C [32] was 84.5% and the viability, T/C [33] was 92.5%. The viability, T/C [34] was 83.7%, the viability, T/C [35] was 65% and the viability, T/C [36] was 30%.
